Laboratory results published in US20020106707A1, “Compositions and methods for detecting and quantifying COX-2 activity and anandamide metabolites” (priority 2000, published 2002).
Where two headings read alike, the source gives them in different places.

Tests used:
[1] = rat
COX-2 = target: T1, COX-2 (Mus musculus, UniProt Q05769); conditions: 3 μM inhibitor; RAW264.7 cells activated with LPS (1 μg/mL) and IFN-γ (10 units/mL), AEA 20 μM
T1 sequence (Q05769 18-604): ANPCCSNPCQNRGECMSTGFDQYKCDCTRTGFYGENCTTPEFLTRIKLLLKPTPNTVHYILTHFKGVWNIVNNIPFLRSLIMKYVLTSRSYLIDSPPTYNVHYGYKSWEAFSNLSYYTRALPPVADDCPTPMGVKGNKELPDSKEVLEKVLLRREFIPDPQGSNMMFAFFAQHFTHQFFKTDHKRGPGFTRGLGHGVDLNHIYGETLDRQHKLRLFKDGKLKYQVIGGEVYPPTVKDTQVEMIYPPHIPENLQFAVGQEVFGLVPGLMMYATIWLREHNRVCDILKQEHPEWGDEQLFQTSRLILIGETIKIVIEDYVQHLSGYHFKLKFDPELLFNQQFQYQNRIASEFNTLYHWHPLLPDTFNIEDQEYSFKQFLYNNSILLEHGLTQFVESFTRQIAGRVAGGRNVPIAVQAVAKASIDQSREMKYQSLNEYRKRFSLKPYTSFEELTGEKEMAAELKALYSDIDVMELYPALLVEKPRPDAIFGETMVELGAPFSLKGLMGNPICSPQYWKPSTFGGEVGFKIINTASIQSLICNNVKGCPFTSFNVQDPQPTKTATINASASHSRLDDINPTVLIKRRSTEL

CCCCCC(=O)CCC1C(O)CC(=O)C1C/C=C\CCCC(=O)NCCO (centres unmarked) [13,14-dihydro-15-keto-PGE2-EA]
detection at 2 hours post-dosing ([1]; in vivo, iv, 2 mg/kg): routinely detected

CCCCC[C@H](O)/C=C/[C@H]1[C@H](O)CC(=O)[C@@H]1C/C=C\CCCC(=O)NCCO [PGE2-EA, prostaglandin E2 ethanolamide]
apparent volume of distribution ([1]; 2 mg/kg PGE2-EA IV): 300 to 400 mL
detection at 2 hours post-dosing ([1]; 2 mg/kg PGE2-EA IV, 2 hours post-dosing): routinely detected
calculated plasma half-life ([1]; 2 mg/kg PGE2-EA IV, n=3): 6.33 ± 0.833 min

COc1ccc2c(c1)c(CC(=O)NCCc1ccccc1)c(C)n2C(=O)c1ccc(Cl)cc1 [indomethacin phenethylamide, 2-[1-(4-chlorobenzoyl)-5-methoxy-2-methyl-1H-indol-3-yl]-N-phenethylacetamide]
PGD2-EA biosynthesis (COX-2): inhibited
